Where a name gives a salt, the structure may show the parent alone.
Assay: Impurity levels 30 days after tablet manufacture (storage stability)
Assay type: physicochemical
Settings: 30 days after manufacture, storage at RT (15-29° C.) and NMT 67% RH; % wt impurity
Procedure: As used herein, unless indicated otherwise, the amount of saxagliptin cyclic amidine in the dosage forms following manufacture of the pharmaceutical dosage forms are measured following storage for 30 days at room temperature conditions (typically manufacture (following storage at room temperature (i.e. typically a temperature of between 15-29° C.), and at a relative humidity of not more than 67%.
Measurements of % wt impurities herein (oxamidine, cyclic amidine, etc) are taken 30 days after manufacture of the formulations [storage at ambient conditions, i.e. room temperature (RT) of between 15-29° C. and not more than 67% relative humidity (RH)].
Formulation #1 Excluding Cosmetic Coating—Analytical Data (30 Days after Tablet Manufacture)

With N#C[C@@H]1C[C@@H]2C[C@@H]2N1C(=O)[C@@H](N)C12CC3CC(CC(O)(C3)C1)C2 [Saxagliptin HCl, (1S,3S,5S)-2-((2S)-2-amino-2-(3-hydroxyadamantan-1-yl)-acetyl)-2-azabicyclo[3.1.0]hexane-3-carbonitrile] the “Cyclic Amidine level” value was less than 0.03%, the “Greatest Unknown Impurity level” value was 0.19% and the Oxamidine level was less than 0.03%. The “Total Impurity level” value was 0.23%.

— US20130189358A1, “SAXAGLIPTIN PHARMACEUTICAL FORMULATIONS” (priority 2012, published 2013)
